# Data: patent US12084472B2 (Ardelyx, Inc., priority 2015, dated 2024)
# Molecular target: T1, human TGR5 (Homo sapiens, UniProt Q8TDU6)
# T1 construct: expressed in transfected cells; host or cells: HEK293
# T1 sequence (Q8TDU6 1-330): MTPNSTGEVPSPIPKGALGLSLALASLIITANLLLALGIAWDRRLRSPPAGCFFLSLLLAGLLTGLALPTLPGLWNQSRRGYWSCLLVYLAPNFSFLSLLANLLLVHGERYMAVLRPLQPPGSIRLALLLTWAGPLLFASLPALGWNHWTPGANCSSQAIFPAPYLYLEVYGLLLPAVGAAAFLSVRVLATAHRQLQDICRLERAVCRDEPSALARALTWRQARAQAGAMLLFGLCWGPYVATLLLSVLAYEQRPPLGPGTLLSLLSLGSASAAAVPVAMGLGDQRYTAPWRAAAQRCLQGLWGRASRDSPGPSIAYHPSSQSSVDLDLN
# Assay: Cell-based TGR5 assay (cAMP generation, HTRF)
# Details: HEK293 cells stably transfected with human TGR5; cAMP by HTRF; 30 minutes at 37° C.; read-out: pEC50 Human TGR5 (converted)
# Method in brief: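 First, compounds in 3-fold serial dilution were placed in HBSS with 10 mM HEPES pH 7.4 and 0.5 mM IBMX. Next, human TGR5-expressing HEK293 cells were added and incubated 30 min at 37° C. Finally, cAMP was detected by HTRF and pEC50 derived by logistic fitting.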
row,SMILES,EC50 [nM]
1,"Cc1cc(CNC2(c3cnccc3-c3ccccc3OC3CC3)CC2)c(Cl)cn1 [Compound I-34, N-[(5-chloro-2-methylpyridin-4-yl)methyl]-1-[4-(2-cyclopropoxyphenyl)pyridin-3-yl]cyclopropan-1-amine]",< 100
2,"O=S(=O)(c1ccc(Cl)c(COC2(c3cnccc3-c3ccccc3OC3CC3)CC2)c1)N1CCCCC1 [Compound I-396, 3-(1-{[2-chloro-5-(piperidine-1-sulfonyl)phenyl]methoxy}cyclopropyl)-4-(2-cyclopropoxyphenyl)pyridine]",< 100
3,"CN(CCCCN(CCS(C)(=O)=O)C(=O)[C@@H](O)[C@@H](O)[C@H](O)[C@@H](O)CO)S(=O)(=O)c1ccc(Cl)c(COC2(c3cnccc3-c3ccccc3OC3CC3)CC2)c1 [Compound I-459, (2S,3S,4R,5S)-2,3,4,5,6-pentahydroxy-N-(2-methanesulfonylethyl)-N-{4-[N-methyl4-chloro-3-({1-[4-(2-cyclopropoxyphenyl)pyridin-3-yl]cyclopropoxy}methyl)benzenesulfonamido]butyl}hexanamide]",< 100
4,"C[C@@H](CCCN)c1ccc(Cl)c(CNC2(c3cnccc3-c3ccccc3OC3CC3)CC2)c1 (single isomer, unassigned) [Compound I-250]",< 100
5,"CN(C)S(=O)(=O)c1cc(COC2(c3cnccc3-c3ccccc3OC3CC3)CC2)c(Cl)cc1O [Compound I-731, 4-chloro-5-([1-[4-(2-cyclopropoxyphenyl)pyridin-3-yl]cyclopropoxy]methyl)-2-hydroxy-N,N-dimethylbenzene-1-sulfonamide]",< 100
6,"COCCN(CCCCc1cc(Cl)c(COC2(c3cnccc3-c3ccccc3OC3CC3)CC2)cc1Cl)C(=O)[C@@H](O)[C@@H](O)[C@H](O)[C@@H](O)CO [Compound I-206, (2S,3S,4R,5S)-N-{4-[2,5-dichloro-4-({1-[4-(2-cyclopropoxyphenyl)pyridin-3-yl]cyclopropoxy}methyl)phenyl]butyl}-2,3,4,5,6-pentahydroxy-N-(2-methoxyethyl)hexanamide]",< 100
7,"Cc1ccc(C(C)CCCCNC(=O)[C@@H](O)[C@@H](O)[C@H](O)[C@@H](O)CO)cc1COC1(c2cnccc2-c2ccccc2OC2CC2)CC1 (stereo partly drawn) [Compound I-312, (2S,3S,4R,5S)-N-{5-[3-({1-[4-(2-cyclopropoxyphenyl)pyridin-3-yl]cyclopropoxy}methyl)-4-methylphenyl]hexyl}-2,3,4,5,6-pentahydroxyhexanamide]",< 100
8,"CCN(C[C@H](O)[C@@H](O)[C@H](O)[C@H](O)CO)C(=O)NCCCCc1cc(Cl)c(COC2(c3cnccc3-c3ccccc3OC3CC3)CC2)cc1C [Compound I-94, 3-(4-(5-chloro-4-((1-(4-(2-cyclopropoxyphenyl)pyridin-3-yl)cyclopropoxy)methyl)-2-methylphenyl)butyl)-1-ethyl-1-((2S,3R,4R,5R)-2,3,4,5,6-pentahydroxyhexyl)urea]",< 100
9,"Cc1ccc(SCCCN(CCCCO)C(=O)[C@@H](O)[C@@H](O)[C@H](O)[C@@H](O)CO)cc1COC1(c2cnccc2-c2ccccc2OC2CC2)CC1 [Compound I-539, (2S,3S,4R,5S)-N-(3-{[3-({1-[4-(2-cyclopropoxyphenyl)pyridin-3-yl]cyclopropoxy}methyl)-4-methylphenyl]sulfanyl}propyl)-2,3,4,5,6-pentahydroxy-N-(4-hydroxybutyl)hexanamide]",126 to 1000
10,"CN(C[C@H](O)[C@@H](O)[C@H](O)[C@H](O)CO)C(=O)NC1CCN(C(=O)CCCCc2cc(Cl)c(COC3(c4cnccc4-c4ccccc4OC4CC4)CC3)cc2Cl)CC1 (stereo in doubt) [Compound I-159, 1-(1-{5-[2,5-dichloro-4-({1-[4-(2-cyclopropoxyphenyl)pyridin-3-yl]cyclopropoxy}methyl)phenyl]pentanoyl}piperidin-4-yl)-3-methyl-3-[(2S,3R,4R,5R)-2,3,4,5,6-pentahydroxyhexyl]urea]",< 100
11,"CC(=O)N(CCCCc1cc(Cl)c(COC2(c3cnccc3-c3ccccc3OC3CC3)CC2)cc1Cl)C[C@H](O)[C@@H](O)[C@H](O)[C@H](O)CO [Compound I-68, N-{4-[2,5-dichloro-4-({1-[4-(2-cyclopropoxyphenyl)pyridin-3-yl]cyclopropoxy}methyl)phenyl]butyl}-N-[(2S,3R,4R,5R)-2,3,4,5,6-pentahydroxyhexyl]acetamide]",< 100
12,"CC(C)N(CCCCNC(=O)NC[C@H](O)[C@@H](O)[C@H](O)[C@H](O)CO)S(=O)(=O)c1ccc(Cl)c(COC2(c3cnccc3-c3ccccc3OC3CC3)CCOC2)c1 (stereo partly drawn) [Compound I-750, 4-chloro-3-(((3-(4-(2-cyclopropoxyphenyl)pyridin-3-yl)tetrahydrofuran-3-yl)oxy)methyl)-N-isopropyl-N-(4-(3-((2S,3R,4R,5R)-2,3,4,5,6-pentahydroxyhexyl)ureido)butyl) benzenesulfonamide]",< 100
13,"O=S(=O)(NCC(F)(F)F)c1ccc(Cl)c(COC2(c3cnccc3-c3ccccc3OC3CC3)CC2)c1 [Compound I-772, 4-chloro-3-((1-(4-(2-cyclopropoxyphenyl)pyridin-3-yl)cyclopropoxy)methyl)-N-(2,2,2-trifluoroethyl)benzenesulfonamide]",< 100
14,"O[C@@H]1COC[C@H]1Oc1ccccc1-c1ccncc1C1(NCc2cc(Cl)ccc2Cl)CC1 [Compound I-22, (3R,4R)-4-{2-[3-(1-{[(2,5-dichlorophenyl)methyl]amino}cyclopropyl)pyridin-4-yl]phenoxy}oxolan-3-ol]",1260 to 10000

# Further lines, results first:
row,EC50 [nM],SMILES
1,126 to 1000,"CS(=O)(=O)CCCN(CCCSc1ccc(Cl)c(CNC2(c3cnccc3-c3ccccc3OC3CC3)CC2)c1)C(=O)[C@@H](O)[C@@H](O)[C@H](O)[C@@H](O)CO [Compound I-525, (2S,3S,4R,5S)-N-[3-({4-chloro-3-[({1-[4-(2-cyclopropoxyphenyl)pyridin-3-yl]cyclopropyl}amino)methyl]phenyl}sulfanyl)propyl]-2,3,4,5,6-pentahydroxy-N-(3-methanesulfonylpropyl) hexanamide]"
2,126 to 1000,"Cc1ccc(SCCCN(CCOCCO)C(=O)[C@@H](O)[C@@H](O)[C@H](O)[C@@H](O)CO)cc1CNC1(c2cnccc2-c2ccccc2OC2CC2)CC1 [Compound I-545, (2S,3S,4R,5S)-N-[3-({3-[({1-[4-(2-cyclopropoxyphenyl)pyridin-3-yl]cyclopropyl}amino)methyl]-4-methylphenyl}sulfanyl)propyl]-2,3,4,5,6-pentahydroxy-N-[2-(2-hydroxyethoxy)ethyl]hexanamide]"
3,126 to 1000,"O=C([C@@H](O)[C@@H](O)[C@H](O)[C@@H](O)CO)N(CCCCSc1ccc(Cl)c(CNC2(c3cnccc3-c3ccccc3OC3CC3)CC2)c1)CC1CCOCC1 [Compound I-536, (2S,3S,4R,5S)-N-[4-({4-chloro-3-[({1-[4-(2-cyclopropoxyphenyl)pyridin-3-yl]cyclopropyl}amino)methyl]phenyl}sulfanyl)butyl]-2,3,4,5,6-pentahydroxy-N-(oxan-4-ylmethyl)hexanamide]"
4,< 100,"CC(CCCCNC(=O)NC[C@H](O)[C@@H](O)[C@H](O)[C@H](O)CO)c1ccc(Cl)c(COC2(c3cnccc3-c3ccccc3OC3CC3)CC2)c1 (stereo partly drawn) [Compound I-275, 1-{5-[4-chloro-3-({1-[4-(2-cyclopropoxyphenyl)pyridin-3-yl]cyclopropoxy}methyl)phenyl]hexyl}-3-[(2S,3R,4R,5R)-2,3,4,5,6-pentahydroxyhexyl]urea]"
5,< 100,"O=C(NCCCSc1ccc(Cl)c(CNC2(c3cnccc3-c3ccccc3OC3CC3)CC2)c1)NC[C@H](O)[C@@H](O)[C@H](O)[C@H](O)CO [Compound I-622, 1-[3-({4-chloro-3-[({1-[4-(2-cyclopropoxyphenyl)pyridin-3-yl]cyclopropyl}amino)methyl]phenyl}sulfanyl)propyl]-3-[(2S,3R,4R,5R)-2,3,4,5,6-pentahydroxyhexyl]urea]"
6,< 100,"CC(CCCC(=O)N(C)C[C@H](O)[C@@H](O)[C@H](O)[C@H](O)CO)c1ccc(Cl)c(CNC2(c3cnccc3-c3ccccc3OC3CC3)CC2)c1 (stereo partly drawn) [Compound I-327, 5-{4-chloro-3-[({1-[4-(2-cyclopropoxyphenyl)pyridin-3-yl]cyclopropyl}amino)methyl]phenyl}-N-methyl-N-[(2S,3R,4R,5R)-2,3,4,5,6-pentahydroxyhexyl]hexanamide]"
7,126 to 1000,"O=C(NCCCCc1cc(Cl)c(CNC2(c3cnccc3-c3ccccc3OC3COC3)CC2)cc1Cl)NC[C@H](O)[C@@H](O)[C@H](O)[C@H](O)CO [Compound I-174, 1-[4-(2,5-dichloro-4-([(1-{4-[2-(oxetan-3-yloxy)phenyl]pyridin-3-yl}cyclopropyl)amino]methyl)phenyl)butyl]-3-[(2S,3R,4R,5R)-2,3,4,5,6-pentahydroxyhexyl]urea]"
8,< 100,"CC(CCCN(C)C(=O)[C@@H](O)[C@@H](O)[C@H](O)[C@@H](O)CO)c1ccc(Cl)c(CNC2(c3cnccc3-c3ccccc3OC3CC3)CC2)c1 (stereo partly drawn) [Compound I-258, (2S,3S,4R,5S)-N-(4-[4-chloro-3-[([1-[4-(2-cyclopropoxyphenyl)pyridin-3-yl]cyclopropyl]amino)methyl]phenyl]pentyl)-2,3,4,5,6-pentahydroxy-N-methylhexanamide]"
9,< 100,"CC(=O)N(CCCCC(C)c1ccc(Cl)c(CNC2(c3cnccc3-c3ccccc3OC3CC3)CC2)c1)C[C@H](O)[C@@H](O)[C@H](O)[C@H](O)CO (stereo partly drawn) [Compound I-378, N-(5-{4-chloro-3-[({1-[4-(2-cyclopropoxyphenyl)pyridin-3-yl]cyclopropyl}amino)methyl]phenyl}hexyl)-N-[(2S,3R,4R,5R)-2,3,4,5,6-pentahydroxyhexyl]acetamide]"
